“Also recorded” adds a separate entry of the source.
How the values were obtained:
HDAC1 = target: T1, HDAC1 (Homo sapiens, UniProt Q13547); assay: in vitro HDAC enzyme assay with recombinant enzyme; conditions: from biochemical IC50 values, recombinant enzymes
T1 construct: purchased BPS Biosciences
Description: (§1) Among class I HDACs, Hdac1,2 share a 50% sequence homology with Hdac3. Therefore, we first determined the selectivity of ACY-957 towards HDAC1 and HDAC2 in in vitro enzyme assays using recombinant enzymes.

HDAC2 = target: T2, HDAC2 (Homo sapiens, UniProt Q92769); assay: in vitro HDAC enzyme assay with recombinant enzyme; conditions: from biochemical IC50 values, recombinant enzymes
T2 construct: purchased BPS Biosciences
Description: as §1

[1] = test system: Karpas-422 and SUDHL4 cells; assay: Western blot of chromatin extracts for H3K27ac and H3K27me3; type: cell-based, human
Method: Western blot analysis was done with anti-H3K27ac, H3K27me3 or EZH2 and histone H3 served as a loading control.
Following DMSO or ACY-957 treatment, cells were exposed to a 5Gy dose of ionizing radiation and allowed to recover for 30 minutes prior to chromatin extraction. Western blots were performed with anti-H3K27ac or anti-H3K27me3 with histone H3 serving as a loading control. (B-E): Karpas-422, SUDHL4, WSU-DLCL2 and HeLa cells were laser micro-irradiated and allowed to recover for 15 minutes before fixation and immunofluorescence staining with anti-γH2AX and anti-H3K27me3. Subsequently, the percentage of cells with H3K27me3 lines that co-localized with γH2AX were counted. Merge is the overlay of γH2AX and H3K27me3 pictures. (F-I): At least 100 cells with γH2AX lines were counted in each experiment. The quantitation shown was the average calculated from independent experiments+/−standard error. Quantitation from five, seven, five and six independent experiments performed in Karpas-422, SUDHL4, WSU-DLCL2 and HeLa cells, respectively, was used in the graph shown in this figure. (J): Karpas-422 cells were micro-irradiated with a laser and allowed to recover for 15 minutes before fixation and immunofluorescence staining was performed with anti-γH2AX and anti-H3K27ac.
Protein Preparation and Western Blot Analysis.
The histone H3K27 residue was subjected to reversible acetylation and methylation. […] We also treated cells with the second EZH2 inhibitor, GSK126 alone, or combined with ACY-957 (ACY-957+GSK126). […] Cells were treated for 48 h prior to preparing chromatin extracts for Western analysis using antibodies recognizing H3K27ac or H3K27me3.
We first examined whether inhibiting HDAC1,2 activity induced any change in global H3K27ac or H3K27me3 on chromatin following DNA damage and during DNA repair. SUDHL4 or Karpas-422 cells with or without exposure to ionizing radiation (IR) were initially treated with DMSO or ACY-957 for 48 hr. Chromatin extracts were prepared from these cells following a 30 min recovery period (the repair phase) and changes in histone modifications were examined by Western blotting.

SUDHL4 cells = assay: propidium-iodide / BrdU-PI cell cycle analysis; type: cell-based, human
Method: (B): Quantitation of the cell cycle data in (A), compiled from three independent analyses. The graphs plotted the average percentage of cells in each phase of the cell cycle. […] (C): FACS analysis following BrdU-PI staining of Karpas-422 and SUDHL4 cells was performed following a 48 h or 72 h treatment with ACY-957.
(B): Quantitation of the cell cycle analysis performed in (A). Data from three independent cell cycle analyses were compiled and average percentage cells with standard errors were shown in this panel.
Propidium-iodide Cell Cycle Analysis.
Since these DLBCL cells expressed a hyperactive form of EZH2, pharmacological inhibition of EZH2 activity was considered a therapeutic strategy. […] GSK126 was a S-adenosyl-methionine-competitive inhibitor of EZH2 methyltransferase activity, and DZNep was a S-adenosylhomocysteine hydrolase inhibitor that disrupted the components of the PRC2 complex, thereby causing reduced chromatin-associated EZH2 levels.

[2] = test system: SUDHL4 and Karpas-422 cells; assay: Western blot of γH2AX on chromatin, with or without ionizing radiation; type: cell-based, human
Method: The percentage of cells with 6 or greater γH2AX foci were counted in three independent experiments and at least 100 cells were counted in each experiment. […] Histones were purified using trichloroacetic acid extraction protocol (see Example 1). Western blot analysis was done with anti-γH2AX and histone H2AX served as the loading control. […] Following DMSO or ACY957 treatment, cells were exposed to a 5Gy dose of ionizing radiation and allowed to recover for 30 minutes prior to chromatin extraction. Western blot analysis was done with anti-γH2AX where total histone H2AX served as a loading control. (D): Karpas-422 cells were micro-irradiated with laser and allowed to recover for 15 minutes before fixation and immunofluorescence staining with anti-γH2AX, anti-HDAC1 and anti-HDAC2 antibodies was done.

T2 sequence (Q92769 whole entry): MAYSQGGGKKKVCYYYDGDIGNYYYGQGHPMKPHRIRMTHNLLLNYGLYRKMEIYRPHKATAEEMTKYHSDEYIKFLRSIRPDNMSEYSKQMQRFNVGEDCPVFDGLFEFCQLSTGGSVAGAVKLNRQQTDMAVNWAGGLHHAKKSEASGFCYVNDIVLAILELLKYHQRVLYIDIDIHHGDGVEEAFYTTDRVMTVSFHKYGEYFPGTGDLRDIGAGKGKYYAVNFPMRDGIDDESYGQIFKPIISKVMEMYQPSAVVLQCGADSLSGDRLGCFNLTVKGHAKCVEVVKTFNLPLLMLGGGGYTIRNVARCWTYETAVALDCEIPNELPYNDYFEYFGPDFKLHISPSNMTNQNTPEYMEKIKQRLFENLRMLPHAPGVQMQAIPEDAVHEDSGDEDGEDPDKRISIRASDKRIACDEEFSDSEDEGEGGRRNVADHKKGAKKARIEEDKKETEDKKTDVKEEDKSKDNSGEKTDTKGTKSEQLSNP
T1 sequence (Q13547 whole entry): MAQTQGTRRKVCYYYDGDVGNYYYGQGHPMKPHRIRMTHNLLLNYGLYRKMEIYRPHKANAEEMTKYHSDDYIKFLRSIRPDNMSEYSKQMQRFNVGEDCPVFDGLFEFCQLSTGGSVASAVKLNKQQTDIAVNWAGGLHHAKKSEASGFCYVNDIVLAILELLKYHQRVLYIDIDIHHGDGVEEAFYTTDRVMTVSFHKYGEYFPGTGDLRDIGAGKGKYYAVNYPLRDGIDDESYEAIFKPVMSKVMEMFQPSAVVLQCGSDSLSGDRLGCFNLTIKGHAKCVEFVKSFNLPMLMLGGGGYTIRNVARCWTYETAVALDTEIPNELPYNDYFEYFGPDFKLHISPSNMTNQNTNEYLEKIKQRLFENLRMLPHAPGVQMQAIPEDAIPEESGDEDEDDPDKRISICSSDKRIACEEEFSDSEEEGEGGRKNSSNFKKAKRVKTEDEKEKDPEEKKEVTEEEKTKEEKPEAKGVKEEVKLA

SMILES: Nc1ccc(-c2cccs2)cc1NC(=O)c1ccc2nc(N3CCNCC3)ccc2c1 [ACY-957, N-(2-amino-5-(thiophen-2-yl)phenyl)-2-(piperazin-1-yl)quinoline-6-carboxamide]
- selectivity for HDAC1 when compared to HDAC3 (HDAC1): 185 fold
- selectivity for HDAC2 when compared to HDAC3 (HDAC2): 72 fold
- global H3K27ac levels ([1]; 48 h, chromatin extracts): robust increase in global H3K27ac levels
- global H3K27me3 levels ([1]; 48 h, chromatin extracts): remained unchanged
- global H3K27me3 levels on chromatin ([1]; 48 hr, 30 min recovery from IR): concomitant decrease in global H3K27me3 levels on chromatin was not observed
- global H3K27ac levels on chromatin ([1]; 48 hr, with or without exposure to IR): increased
- progression through the cell cycle (SUDHL4 cells; 24 h, 2 μM ACY-957, 0.5 μM DZNEP, 0.5 μM GSK126): did not affect their progression through the cell cycle
- cell cycle / G1 arrest (SUDHL4 cells; 48 h, 2 μM ACY-957, 0.5 μM GSK126): accumulation of SUDHL4 cells in G1 phase (G1 arrest)
- S-phase population, BrdU-PI FACS (SUDHL4 cells; 48 h and 72 h, accompanied by G1 arrest): decrease in S-phase population
- cell cycle / G1 arrest and sub-G1 (SUDHL4 cells; 72 h, 2 μM ACY-957, 0.5 μM DZNEP, 0.5 μM GSK126): greater number of cells arrested in G1 phase; also recorded: cell cycle arrest at G1 phase in SUDHL4 cells
- chromatin associated γH2AX ([2]; 48 hr, Western): increase in chromatin associated γH2AX
- γH2AX levels on chromatin after ionizing radiation ([2]; 48 h treatment, 5Gy, 30 min recovery): Increased γH2AX levels on chromatin
